Laboratory results: US20250352609A1, “Methods For Treating Alzheimer's Disease or Dementia Using A Calcilytic And A Calcimimetic” (The United States Government As Represented By The …, priority 2024, published 2025)

Legend:
Tau phosphorylation = assay: Aβ1-42-stimulated PTH secretion in vitro with Tau phosphorylation inhibitor; type: cell-based; details: inhibition of Tau phosphorylation
From the text: In support of this finding, inhibition of Tau phosphorylation by a staurosporine analogue (K252a) blocked the ability of Aβ1-42 to stimulate PTH secretion in vitro, and the increased tonic PTH hypersecretion seen in mice with PTC-targeted Vdr gene KO (^PTCVdr^Dflox/Dflox), mimicking vitamin D deficiency, was reversed by a concurrent ablation of App (^PTCVdr^Dflox/Dflox; App^Dflox/Dflox) or the TAU-encoding Mapt (^PTCVdr^Dflox/Dflox; Mapt−/−) gene.

human PTGs = assay: Tonic PTH secretion from cultured human PTGs; type: cell-based; details: exogenous Aβ1-42 0.3 to 1000 nM, concentration-dependent, vs control
From the text: (§1) This stimulatory effect was absent in murine PTGs lacking either CaSR or GABAB1R.

murine PTGs = assay: Ex vivo tonic PTH secretion from cultured murine PTGs; type: cell-based
Description: Ex vivo assessments of the impact of different concentrations (0.3 to 1000 nM) Aβ1-42 on PTH secretion from intact PTGs cultured from the 3-month-old mice with homozygous parathyroid-specific App gene KO (square); homozygous parathyroid-specific App and Casr double gene KO (up triangle); homozygous parathyroid-specific App and Gabbr1 double gene KO (down triangle); or homozygous parathyroid-specific App, Casr, and Gabbr1 triple gene KO (diamond). Mean±s.e.m. of n mice as indicated in the plots.
as §1

[1] = tested on: iPSC-derived neurons co-expressing CASR and GABAB1R; assay: cAMP production in iPSC-derived neurons challenged by Aβ42; type: cell-based; details: iPSC-derived neurons perfused with Aβ42
From the text: Averaged time courses of CAMP in normal iPSC-derived neurons natively expressing CaSR and GABAB1R and challenged by Ab1-42. Cells were continuously perfused with buffer without or with Aβ42 (horizontal bar). Data represent the mean value s.e.m. of n=20 cells and N=3 experiments.
Given that HPT can cause chronic inflammation (Cheng, S. P., et al. Mediators Inflamm 2014, 709024 (2014); çrakolu, M. F. et al. ENT Updates 11, 115-119 (2021); and Almqvist, E. G., et al. Scandinavian journal of clinical and laboratory investigation 71, 139-144 (2011)) and that CaSR expression increases in inflammatory responses in pathological conditions (Jager, E. et al. Nat Commun 11, 4243 (2020); and Iamartino, L. & Brandi, M. L. Front Physiol 13, 1059369 (2022)), including in AD, through interleukin (IL)-1β (IL1β) and IL-6-induced NFkb cis-acting response of CASR gene (Canaff, L. & Hendy, G. N. J Biol Chem 280, 14177-14188 (2005); and Hendy, G. N. & Canaff, Semin Cell Dev Biol 49, 37-43 (2016)), HPT-induced inflammation could be a leading cause for CaSR upregulation as well as for Aβ buildup in AD (Kinney, J. W. et al. Alzheimers Dement (N Y) 4, 575-590 (2018); Ilievski, V. et al. PloS one 13, e0204941 (2018); and Yamamoto, M. et al. Am J Pathol 170, 680-692 (2007)).

18 MOA male C57/B6 mice = assay: Y-maze test, aging-induced cognitive declines, Etelcalcetide; type: in vivo; details: 18 MOA vs 5 MOA male C57/B6 mice, 8 weeks daily (5 days/week) injections, 500 μg/kg
Description: Spont Alt indices of Y-maze test in 5 and 18 MOA male C57/B6 mice after 8 weeks of daily (5 days/week) injections of vehicle, 500 μg/kg Etelcalcetide (Etel) and/or 12 μmole/kg NPS-2143 (2143). Mean±SE, p values by one-way ANOVA, n=6-12 mice/group.
(§2) Based on the outcomes of the above genetically manipulated mice, it was tested whether pharmacological manipulations of serum PTH levels with blood-brain barrier (BBB)-impermeable calcimimetics (e.g., etelcalcetide) that activate CaSR homodimers in PTCs to suppress PTH secretion can prevent the cognitive declines in the aging and APP^NL-G-F/NL-G-F mice.

APP^NL-G-F mice = assay: Y-maze test, cognitive declines in EOAD mice, Etelcalcetide; type: in vivo; details: APP^NL-G-F mice at 10 MOA, daily (5 days/week) injections 500 μg/kg beginning at 6 MOA
Description: Spont Alt indices of Y-maze test in 10 MOA mice carrying humanized Ab sequence without (bAb-KI) or with (APP^NLGF) 4 mutations identified from EOAD patients after daily (5 days/week) injections of vehicle, 500 μg/kg Etelcalcetide (Etel) and/or 12 μmole/kg NPS-2143 (2143) beginning at 6 MOA. Mean±SE, p values by one-way ANOVA, n=19-37 mixed male and female mice/group.
as §2

serum PTH (sPTH) = assay: Serum PTH in aging-associated HPT mice; type: in vivo; details: aged male C57/B6 mice; aducanumab 40 mg/kg/week by twice weekly injections for 5 weeks; Etelcalcetide 0.3 mg/kg once daily

COC(=O)[C@@]1(O)C[C@H]2O[C@]1(C)n1c3ccccc3c3c4c(c5c6ccccc6n2c5c31)C(=O)NC4 [K252a]
ability of Aβ1-42 to stimulate PTH secretion (Tau phosphorylation): blocked

Aβ1-42: b-amyloid (Ab1-42), derivative of amyloid precursor protein, added exogenously to PTG cultures
stimulation of tonic PTH secretion (human PTGs): ≤ 1.9 fold
stimulation of tonic PTH secretion (murine PTGs; exogenous Aβ1-42 0.3 to 1000 nM, concentration-dependent, vs control): up to 1.6 fold
stimulatory effect on PTH secretion in PTGs lacking either CaSR or GABAB1R (murine PTGs; murine PTGs lacking either CaSR or GABAB1R): absent
Ca^2+-set point (murine PTGs; murine and human PTGs, Aβ1-42 0.3 to 1000 nM): without shifting
cAMP production [1]: stimulating cAMP production

CC(=O)N[C@H](CSSC[C@H](N)C(=O)O)C(=O)N[C@H](C)C(=O)N[C@H](CCCNC(=N)N)C(=O)N[C@H](CCCNC(=N)N)C(=O)N[C@H](CCCNC(=N)N)C(=O)N[C@H](C)C(=O)N[C@H](CCCNC(=N)N)C(N)=O [Etelcalcetide]
cognitive declines, Y-maze Spont Alt index (18 MOA male C57/B6 mice): partially prevented
early cognitive declines, Y-maze Spont Alt index (APP^NL-G-F mice): partially prevented
reduction of sPTH (serum PTH (sPTH)): > 80%
